Measured values reported in article PMC3590144, “Determination of the Structure of the Catabolic N-Succinylornithine Transaminase (AstC) from Escherichia coli” (PLoS ONE, 2013).

Tests used:
Type in all cases: binding
[1] = target: T1, AstC (Escherichia coli, UniProt P77581); experiment: X-ray crystal structure, […] Å; conditions: covalent; internal aldimine with Lys252 at dimer interface; sodium malonate, Tris pH 8.0
T1 construct: full-length, native untagged, no plasmid; purified from E. coli BL21(DE3) by Ni-NTA and size exclusion as apo-protein, reconstituted with PLP; about 406 residues; dimer

[2] = target: T1, AstC; experiment: differential scanning fluorimetry, SYPRO dye; conditions: Tris buffered saline; apo-protein plus PLP (about 10-fold excess) versus apo-protein
[3] = target: T1, AstC; experiment: X-ray crystal structure of co-crystals, […] Å; conditions: covalent to PLP cofactor (external aldimine); PLP present; salt bridge to Arg141; ammonium sulfate pH 7-9

T1 sequence (P77581 whole entry): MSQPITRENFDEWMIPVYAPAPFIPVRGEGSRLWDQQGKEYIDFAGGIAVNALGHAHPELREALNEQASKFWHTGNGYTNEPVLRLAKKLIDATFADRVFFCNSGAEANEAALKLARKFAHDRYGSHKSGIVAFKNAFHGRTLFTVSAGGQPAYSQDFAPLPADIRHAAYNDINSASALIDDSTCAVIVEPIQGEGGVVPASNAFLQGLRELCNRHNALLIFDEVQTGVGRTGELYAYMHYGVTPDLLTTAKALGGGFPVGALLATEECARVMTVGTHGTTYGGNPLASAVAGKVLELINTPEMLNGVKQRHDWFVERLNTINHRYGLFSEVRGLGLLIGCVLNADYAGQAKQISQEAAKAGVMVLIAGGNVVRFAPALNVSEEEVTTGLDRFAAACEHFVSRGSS

apparent Tm (holo-AstC; apo-AstC 43.5) [2]	SMILES	X-ray crystal structure, 2.20 Å [1]	X-ray crystal structure of co-crystals, 2.45 Å [3]
46 °C	Cc1ncc(COP(=O)(O)O)c(C=O)c1O [PLP, pyridoxal phosphate]	continuous density between Lys252 and the PLP, indicating that the expected aldimine had formed	–
–	NCCC[C@H](NC(=O)CCC(=O)O)C(=O)O [SO, succinylornithine]	–	continuous electron density between PLP and SO was observed (see Figure 5C)
